Measured values: US11969506B2, “Lipid nanoparticle formulation” (ModernaTX, Inc., priority 2017, dated 2024)

Experiments:
HeLa cells [1] = assay: Luciferase activity in HeLa cells transfected with mRNA-lipoplexes in the presence of bioactive lipids (FIGS. 9A-9C, 9F); assay type: cell-based
Protocol: FIG. 9A is a graph illustrating luciferase activity in HeLa cells transfected with mRNA-lipoplexes at a dose of 50 ng mRNA in the presence of bioactive lipids (black) normalized to mRNA-lipoplex only control (red), which was set at 100%. Data represented as mean±SEM; n=3. […] FIG. 9B is a graph illustrating luciferase activity in HeLa cells transfected with mRNA-lipoplexes at a dose of 50 ng mRNA in the presence of varying concentrations of MK-571 (blue) relative to mRNA-lipoplex only control (red). Data represented as mean±SD; n=3. […] FIG. 9C is a graph illustrating luciferase activity in HeLa cells transfected with mRNA-lipoplexes at a dose of 50 ng mRNA in the presence of varying concentrations of Arachidonic Acid (blue) relative to mRNA-lipoplex only control (red). Data represented as mean±SD; n=3. […] FIG. 9F is a graph illustrating luciferase activity in HeLa cells transfected with mRNA-lipoplexes at a dose of 50 ng mRNA in the presence of varying concentrations of MK-571 or its analogues, Montelukast, Pranlukast, and Zafirlukast relative to mRNA-lipoplex only control. Data represented as mean±SD; n=3.

HeLa cells [2] = assay: Luciferase activity in HeLa cells transfected using LNPs with MK-571 (FIGS. 9D, 9E); assay type: cell-based; settings: 24 hr pre-incubation with MK-571 (5 μM), increasing doses of mRNA
Protocol: FIG. 9D is a graph illustrating luciferase activity at increasing doses of mRNA in HeLa cells transfected using LNPs, with and without 24 hr pre-incubation with MK-571 (5 μM). Data represented as mean±SD; n=3.
FIG. 9E is a graph illustrating luciferase activity at increasing doses of mRNA in HeLa cells transfected using LNPs and MK-571 loaded LNPs. Data represented as mean±SD; n=3.

Structure (SMILES)	luciferase activity (protein expression) relative to mRNA-lipoplex only control (HeLa cells [1]; 50 ng mRNA, varying concentrations)	protein expression relative to mRNA-lipoplex only control (HeLa cells [1]; 50 ng mRNA, concentration of 5 μM)	enhancement of protein expression over the control (HeLa cells [1]; mRNA-lipoplexes 50 ng mRNA, lipoplex only control set at 100%)	transfection (luciferase activity) using LNPs (HeLa cells [2])
CCCCC/C=C\C/C=C\C/C=C\C/C=C\CCCC(=O)O [Arachidonic Acid]	failed to elicit improvement in protein expression			
CN(C)C(=O)CCSC(SCCC(=O)O)c1cccc(/C=C/c2ccc3ccc(Cl)cc3n2)c1 (stereo not shown) [MK-571]		doubling the protein expression	approximately 40%	able to enhance transfection at all doses of mRNA
